Data: publication PMC4517520 (Drug Design, Development and Therapy, 2015)
Read-outs that look alike come from different tables or passages of the source.

How the values were obtained:
[1] = tested on: EGFR; settings: read-out: Potency [IC50], cited from earlier work
[2] = tested on: HER2; settings: read-out: Potency [IC50]; PDB 3RCD; reference or ChEMBL geometric mean; cited from earlier work
[3] = tested on: HER4; settings: read-out: Potency [IC50]; PDB 3BBT; reference or ChEMBL geometric mean; cited from earlier work
[4] = tested on: H1975 (T790M/L858R) cells; assay: Cell proliferation assay; type: cell-based; settings: Homo sapiens, NCI-H1975, 24 h, read-out: Cellular IC50 H1975 (T790M/L858R)
[5] = tested on: A431 (wild-type) cells; assay: Cell proliferation assay; type: cell-based; settings: Homo sapiens, A-431, 24 h, read-out: Cellular IC50 A431 (wild-type)
[6] = molecular target: human EGFR cytoplasmic domain, dual T790M/L858R mutations (Homo sapiens, UniProt P00533, L858R/T790M); type: biochemical; settings: in vitro
[7] = tested on: MCF-7 cells; assay: Cell proliferation assay; type: cell-based; settings: Homo sapiens, MCF7, 24 h, read-out: Cellular IC50 MCF-7

human EGFR cytoplasmic domain, dual T790M/L858R mutations, sequence (P00533 669-1210 T790M/L858R): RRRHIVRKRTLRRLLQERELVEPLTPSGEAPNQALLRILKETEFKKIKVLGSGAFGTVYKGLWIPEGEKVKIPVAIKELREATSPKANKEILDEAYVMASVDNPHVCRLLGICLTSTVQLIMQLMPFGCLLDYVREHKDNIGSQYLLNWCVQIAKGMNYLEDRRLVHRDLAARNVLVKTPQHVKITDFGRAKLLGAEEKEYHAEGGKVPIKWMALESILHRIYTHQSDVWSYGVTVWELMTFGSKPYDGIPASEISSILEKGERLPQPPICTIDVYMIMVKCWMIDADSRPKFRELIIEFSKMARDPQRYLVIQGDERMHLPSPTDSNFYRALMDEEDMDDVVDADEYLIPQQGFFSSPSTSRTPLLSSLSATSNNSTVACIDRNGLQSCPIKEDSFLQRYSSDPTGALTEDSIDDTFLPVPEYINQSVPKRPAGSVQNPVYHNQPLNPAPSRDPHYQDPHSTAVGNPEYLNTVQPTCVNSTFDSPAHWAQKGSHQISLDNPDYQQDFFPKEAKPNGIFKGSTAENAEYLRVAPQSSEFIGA

In the case of OC[C@@H](Nc1ncnc2oc(-c3ccccc3)c(-c3ccccc3)c12)c1ccccc1 [KJQ], the IC50 ([1]; PDB 4JQ7, reference or ChEMBL geometric mean) is listed as 393 nM.

For CN(C)CCC(=O)Nc1cccc(-c2c(-c3ccccc3)oc3ncnc(N[C@H](CO)c4ccccc4)c23)c1 [KJ8], the IC50 ([1]; PDB 4JQ8, reference or ChEMBL geometric mean) is listed as 8 nM.

In the case of CC(C)(O)CC(=O)NCCn1ccc2ncnc(Nc3ccc(Oc4cccc(C(F)(F)F)c4)c(Cl)c3)c21 [03P], the IC50 ([1]; PDB 3POZ, reference or ChEMBL geometric mean) is given as […] and the IC50 [2] is given as 17 nM.

In the case of COc1cc2ncnc(Nc3ccc(F)c(Cl)c3)c2cc1OCCCN1CCOCC1 [IRE], the IC50 ([1]; PDB 2ITY, reference or ChEMBL geometric mean) is listed as 53.5 nM.

In the case of CCN1CCN(Cc2ccc(-c3cc4c(N[C@H](C)c5ccccc5)ncnc4[nH]3)cc2)CC1 [AEE], the IC50 ([1]; PDB 2J6M, reference or ChEMBL geometric mean) is given as 10.9 nM.

For CN(C)C/C=C/C(=O)Nc1cc2c(Nc3ccc(F)c(Cl)c3)ncnc2cc1O[C@H]1CCOC1 [0WM], the IC50 ([1]; PDB 4G5J, reference or ChEMBL geometric mean) is given as 0.5 nM.

For COc1cc2ncnc(Nc3ccc(F)c(Cl)c3)c2cc1NC(=O)/C=C/CN1CCCCC1 [1C9], the IC50 ([1]; PDB 4I23, reference or ChEMBL geometric mean) is given as 8.12 nM.

In the case of CN(C)CCCC(=O)Nc1cccc(-c2c(-c3ccccc3)oc3ncnc(N[C@H](CO)c4ccccc4)c23)c1 [KJV], the IC50 ([1]; PDB 4JRV, reference or ChEMBL geometric mean) is listed as 29 nM.

For CC(C)(O)CC(=O)NCCc1ccc2ncnc(Nc3ccc(Oc4cccc(C(F)(F)F)c4)c(Cl)c3)c2c1 [A-10, N-(2-(4-((3-Chloro-4-(3-(trifluoromethyl)phenoxy)phenyl)amino)quinazolin-6-yl)ethyl)-3-hydroxy-3-methylbutanamide], the IC50 [4] was 127 nM, the IC50 [5] was 41 nM and the “more potency against EGFR T790M than the two control molecules erlotinib and gefitinib” value [6] was “at least 30 fold”. The IC50 [7] was 94 nM.

Work on C#Cc1cccc(Nc2ncnc3cc(OCCOC)c(OCCOC)cc23)c1 [Erlotinib, erlotinib] yielded an IC50 [5] of 62 nM and an IC50 [7] of over 1000 nM.
